From ChEMBL document CHEMBL4507288 (2021)
Values belong to the molecule of their own block, whether it stands above or below them.

Tests used:
[1] = target: Alpha-2B adrenergic receptor (Homo sapiens, UniProt P18089); assay: GPCRScan assay: inhibition of Alpha2B; parameters: radioligand conc. used [nm] 1.5 – 2.0, parental cells HEKT
[2] = target: Serine/threonine-protein kinase 38 (Homo sapiens) (UniProt Q15208); details: Compound concentration 1000.0 nM
[3] = target: AP2-associated protein kinase 1 (Homo sapiens) (UniProt Q2M2I8); details: Compound concentration 1000.0 nM
[4] = target: Cyclin-dependent kinase 3 (Homo sapiens) (UniProt Q00526); details: Compound concentration 1000.0 nM
[5] = target: NUAK family SNF1-like kinase 2 (Homo sapiens) (UniProt Q9H093); details: Compound concentration 1000.0 nM
[6] = target: Calcium/calmodulin-dependent protein kinase type II subunit beta (Homo sapiens) (UniProt Q13554); details: Compound concentration 1000.0 nM
[7] = target: Serine/threonine-protein kinase MARK1 (Homo sapiens) (UniProt Q9P0L2); details: Compound concentration 1000.0 nM
[8] = target: Mast/stem cell growth factor receptor Kit (Homo sapiens) (UniProt P10721); details: Compound concentration 1000.0 nM
[9] = target: Cyclin-dependent kinase 15 (Homo sapiens) (UniProt Q96Q40); details: Compound concentration 1000.0 nM
[10] = target: Serine/threonine-protein kinase ICK (Homo sapiens) (UniProt Q9UPZ9); details: Compound concentration 1000.0 nM
[11] = target: Dual specificity tyrosine-phosphorylation-regulated kinase 1A (Homo sapiens) (UniProt Q13627); details: Compound concentration 1000.0 nM
[12] = target: Mitogen-activated protein kinase 11 (Homo sapiens) (UniProt Q15759); details: Compound concentration 1000.0 nM
[13] = target: Mitogen-activated protein kinase kinase kinase 2 (Homo sapiens) (UniProt Q9Y2U5); details: Compound concentration 1000.0 nM
[14] = target: TGF-beta receptor type-2 (Homo sapiens) (UniProt P37173); details: Compound concentration 1000.0 nM
[15] = target: Dual serine/threonine and tyrosine protein kinase (Homo sapiens) (UniProt Q6XUX3); details: Compound concentration 1000.0 nM
[16] = target: Fibroblast growth factor receptor 4 (Homo sapiens) (UniProt P22455); details: Compound concentration 1000.0 nM
[17] = target: Serine/threonine-protein kinase PRP4 homolog (Homo sapiens) (UniProt Q13523); details: Compound concentration 1000.0 nM
[18] = target: Tyrosine-protein kinase Lck (Homo sapiens) (UniProt P06239); details: Compound concentration 1000.0 nM
[19] = target: Serine/threonine-protein kinase haspin (Homo sapiens) (UniProt Q8TF76); details: Compound concentration 1000.0 nM
[20] = target: Serine/threonine-protein kinase PAK 4 (Homo sapiens) (UniProt O96013); details: Compound concentration 1000.0 nM
[21] = target: Serine/threonine-protein kinase DCLK1 (Homo sapiens) (UniProt O15075); details: Compound concentration 1000.0 nM
[22] = target: Proto-oncogene tyrosine-protein kinase ROS (Homo sapiens) (UniProt P08922); details: Compound concentration 1000.0 nM
[23] = target: Mitogen-activated protein kinase 8 (Homo sapiens) (UniProt P45983); details: Compound concentration 1000.0 nM
[24] = target: STE20/SPS1-related proline-alanine-rich protein kinase (Homo sapiens) (UniProt Q9UEW8); details: Compound concentration 1000.0 nM
[25] = target: Serine/threonine-protein kinase PAK 5 (Homo sapiens) (UniProt Q9P286); details: Compound concentration 1000.0 nM
[26] = target: Non-receptor tyrosine-protein kinase TYK2 (Homo sapiens) (UniProt P29597); details: Compound concentration 1000.0 nM
[27] = target: Cyclin-G-associated kinase (Homo sapiens) (UniProt O14976); details: Compound concentration 1000.0 nM
[28] = target: Leucine-rich repeat serine/threonine-protein kinase 2 (Homo sapiens) (UniProt Q5S007); details: Compound concentration 1000.0 nM
[29] = target: Dual specificity mitogen-activated protein kinase kinase 2 (Homo sapiens) (UniProt P36507); details: Compound concentration 1000.0 nM
[30] = target: Mitogen-activated protein kinase kinase kinase kinase 5 (Homo sapiens) (UniProt Q9Y4K4); details: Compound concentration 1000.0 nM
[31] = target: Serine/threonine-protein kinase LATS2 (Homo sapiens) (UniProt Q9NRM7); details: Compound concentration 1000.0 nM
[32] = target: Activin receptor type-2A (Homo sapiens) (UniProt P27037); details: Compound concentration 1000.0 nM
Rattus norvegicus = species: Rattus norvegicus; details: Compound concentration 10.0 uM
[33] = target: RAC-alpha serine/threonine-protein kinase (Homo sapiens) (UniProt P31749); details: Compound concentration 1000.0 nM
[34] = target: Ribosomal protein S6 kinase alpha-3 (Homo sapiens) (UniProt P51812); details: Compound concentration 1000.0 nM
[35] = target: Serine/threonine-protein kinase NLK (Homo sapiens) (UniProt Q9UBE8); details: Compound concentration 1000.0 nM

Chain of AP2-associated protein kinase 1 (Homo sapiens) (Q2M2I8 whole entry, looked up): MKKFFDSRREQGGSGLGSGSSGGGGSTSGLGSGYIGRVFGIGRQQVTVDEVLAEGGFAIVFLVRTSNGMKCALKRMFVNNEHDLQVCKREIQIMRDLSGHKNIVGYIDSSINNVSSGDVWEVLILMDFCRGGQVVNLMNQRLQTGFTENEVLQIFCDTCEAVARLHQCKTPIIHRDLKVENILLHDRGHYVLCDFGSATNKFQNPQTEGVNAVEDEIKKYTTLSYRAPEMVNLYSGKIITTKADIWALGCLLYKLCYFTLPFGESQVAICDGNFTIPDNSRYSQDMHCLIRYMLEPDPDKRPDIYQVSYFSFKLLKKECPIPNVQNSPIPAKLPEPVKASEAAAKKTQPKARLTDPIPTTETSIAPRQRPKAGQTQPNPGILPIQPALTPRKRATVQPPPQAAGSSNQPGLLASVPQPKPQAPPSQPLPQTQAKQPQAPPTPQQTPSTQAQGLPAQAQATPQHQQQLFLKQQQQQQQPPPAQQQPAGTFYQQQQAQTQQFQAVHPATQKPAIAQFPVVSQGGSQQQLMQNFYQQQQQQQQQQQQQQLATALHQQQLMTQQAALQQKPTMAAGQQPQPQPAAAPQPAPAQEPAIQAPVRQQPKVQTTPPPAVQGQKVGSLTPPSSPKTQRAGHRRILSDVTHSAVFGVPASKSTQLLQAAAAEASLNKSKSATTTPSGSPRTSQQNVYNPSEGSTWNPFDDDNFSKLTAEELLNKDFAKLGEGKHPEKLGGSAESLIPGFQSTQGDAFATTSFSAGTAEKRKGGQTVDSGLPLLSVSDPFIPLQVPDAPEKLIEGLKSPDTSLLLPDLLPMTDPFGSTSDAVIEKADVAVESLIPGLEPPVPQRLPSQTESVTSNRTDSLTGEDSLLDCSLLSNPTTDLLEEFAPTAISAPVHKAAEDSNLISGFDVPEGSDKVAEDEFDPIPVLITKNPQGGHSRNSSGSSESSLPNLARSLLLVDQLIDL
Chain of Cyclin-dependent kinase 15 (Homo sapiens) (Q96Q40 whole entry): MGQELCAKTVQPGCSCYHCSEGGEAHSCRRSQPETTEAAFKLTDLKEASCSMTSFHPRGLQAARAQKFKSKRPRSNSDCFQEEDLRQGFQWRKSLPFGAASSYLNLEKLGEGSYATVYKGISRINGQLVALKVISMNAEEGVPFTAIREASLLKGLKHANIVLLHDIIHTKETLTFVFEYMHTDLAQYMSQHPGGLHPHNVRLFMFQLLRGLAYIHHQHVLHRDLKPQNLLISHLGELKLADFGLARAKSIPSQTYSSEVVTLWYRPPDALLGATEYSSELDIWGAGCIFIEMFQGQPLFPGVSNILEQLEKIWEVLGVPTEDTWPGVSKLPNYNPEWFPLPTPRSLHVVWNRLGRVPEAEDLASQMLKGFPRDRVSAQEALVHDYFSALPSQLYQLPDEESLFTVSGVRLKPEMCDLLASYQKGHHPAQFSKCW
Chain of Dual specificity mitogen-activated protein kinase kinase 2 (Homo sapiens) (P36507 whole entry): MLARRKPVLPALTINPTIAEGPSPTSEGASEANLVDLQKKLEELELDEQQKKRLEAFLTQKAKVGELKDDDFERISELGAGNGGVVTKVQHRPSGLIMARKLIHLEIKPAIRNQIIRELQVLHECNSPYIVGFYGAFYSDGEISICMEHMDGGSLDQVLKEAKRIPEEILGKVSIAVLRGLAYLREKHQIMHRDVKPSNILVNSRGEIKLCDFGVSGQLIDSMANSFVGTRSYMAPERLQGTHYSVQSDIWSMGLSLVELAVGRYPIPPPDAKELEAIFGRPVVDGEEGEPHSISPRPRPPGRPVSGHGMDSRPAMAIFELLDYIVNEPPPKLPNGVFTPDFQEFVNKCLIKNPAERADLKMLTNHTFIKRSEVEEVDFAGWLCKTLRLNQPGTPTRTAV
Chain of Proto-oncogene tyrosine-protein kinase ROS (Homo sapiens) (P08922 whole entry): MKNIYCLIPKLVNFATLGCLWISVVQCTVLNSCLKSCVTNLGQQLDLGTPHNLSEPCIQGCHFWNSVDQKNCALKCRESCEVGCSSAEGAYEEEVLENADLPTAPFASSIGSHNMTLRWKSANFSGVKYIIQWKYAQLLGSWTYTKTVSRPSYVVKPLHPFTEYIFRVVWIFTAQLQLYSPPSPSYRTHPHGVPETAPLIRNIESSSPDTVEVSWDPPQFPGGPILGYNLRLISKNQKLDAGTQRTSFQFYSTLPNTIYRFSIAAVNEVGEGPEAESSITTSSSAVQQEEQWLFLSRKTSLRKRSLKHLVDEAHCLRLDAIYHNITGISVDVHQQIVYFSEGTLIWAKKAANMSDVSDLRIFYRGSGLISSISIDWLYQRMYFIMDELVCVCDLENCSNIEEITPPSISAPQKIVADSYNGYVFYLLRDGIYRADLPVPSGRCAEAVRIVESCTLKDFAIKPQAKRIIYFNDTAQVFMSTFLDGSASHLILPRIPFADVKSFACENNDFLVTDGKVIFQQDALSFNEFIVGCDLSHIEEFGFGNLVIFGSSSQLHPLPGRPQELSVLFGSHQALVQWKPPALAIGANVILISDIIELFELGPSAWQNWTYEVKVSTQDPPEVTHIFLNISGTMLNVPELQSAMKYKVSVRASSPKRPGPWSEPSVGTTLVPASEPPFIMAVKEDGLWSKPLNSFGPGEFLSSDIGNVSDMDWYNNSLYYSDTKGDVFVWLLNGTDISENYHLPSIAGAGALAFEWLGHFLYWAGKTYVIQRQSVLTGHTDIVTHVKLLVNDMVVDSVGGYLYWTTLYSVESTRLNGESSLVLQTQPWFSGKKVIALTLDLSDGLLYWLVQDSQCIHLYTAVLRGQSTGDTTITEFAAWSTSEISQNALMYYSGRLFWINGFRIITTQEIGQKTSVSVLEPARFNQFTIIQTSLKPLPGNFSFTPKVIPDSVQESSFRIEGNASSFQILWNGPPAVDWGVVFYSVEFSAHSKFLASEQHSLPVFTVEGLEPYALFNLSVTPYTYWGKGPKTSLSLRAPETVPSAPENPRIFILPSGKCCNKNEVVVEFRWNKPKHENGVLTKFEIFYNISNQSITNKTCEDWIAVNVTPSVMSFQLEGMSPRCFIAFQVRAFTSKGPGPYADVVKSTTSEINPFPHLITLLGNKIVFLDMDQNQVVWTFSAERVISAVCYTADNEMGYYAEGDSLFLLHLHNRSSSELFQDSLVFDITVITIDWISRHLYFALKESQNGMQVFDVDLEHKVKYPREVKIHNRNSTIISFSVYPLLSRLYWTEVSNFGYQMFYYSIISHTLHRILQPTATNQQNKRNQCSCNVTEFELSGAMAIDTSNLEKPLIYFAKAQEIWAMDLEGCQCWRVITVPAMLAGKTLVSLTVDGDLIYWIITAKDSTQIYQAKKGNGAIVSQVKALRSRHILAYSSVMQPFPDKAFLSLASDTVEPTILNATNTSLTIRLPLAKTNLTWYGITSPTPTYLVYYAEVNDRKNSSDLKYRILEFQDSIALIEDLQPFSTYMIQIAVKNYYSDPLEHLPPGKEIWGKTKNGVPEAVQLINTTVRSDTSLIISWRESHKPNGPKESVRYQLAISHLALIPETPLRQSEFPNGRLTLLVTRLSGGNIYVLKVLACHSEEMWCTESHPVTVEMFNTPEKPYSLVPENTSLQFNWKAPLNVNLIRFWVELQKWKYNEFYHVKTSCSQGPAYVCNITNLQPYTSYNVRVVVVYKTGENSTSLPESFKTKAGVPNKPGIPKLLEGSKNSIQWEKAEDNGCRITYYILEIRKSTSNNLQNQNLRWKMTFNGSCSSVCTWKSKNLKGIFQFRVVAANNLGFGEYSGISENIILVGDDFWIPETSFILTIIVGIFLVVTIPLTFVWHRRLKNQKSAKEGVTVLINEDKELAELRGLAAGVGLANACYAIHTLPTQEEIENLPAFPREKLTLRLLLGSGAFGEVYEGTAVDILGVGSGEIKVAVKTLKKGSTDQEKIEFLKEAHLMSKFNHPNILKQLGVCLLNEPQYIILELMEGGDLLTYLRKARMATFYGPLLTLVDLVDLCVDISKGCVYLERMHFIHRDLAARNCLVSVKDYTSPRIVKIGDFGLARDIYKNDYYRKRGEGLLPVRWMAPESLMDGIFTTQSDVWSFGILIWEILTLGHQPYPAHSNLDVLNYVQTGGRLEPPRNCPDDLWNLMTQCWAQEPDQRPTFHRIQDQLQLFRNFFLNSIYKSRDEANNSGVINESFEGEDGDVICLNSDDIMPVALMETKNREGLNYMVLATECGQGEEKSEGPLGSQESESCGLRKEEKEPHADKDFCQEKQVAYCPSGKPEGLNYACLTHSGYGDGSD
Chain of Tyrosine-protein kinase Lck (Homo sapiens) (P06239 2-509 limits assumed): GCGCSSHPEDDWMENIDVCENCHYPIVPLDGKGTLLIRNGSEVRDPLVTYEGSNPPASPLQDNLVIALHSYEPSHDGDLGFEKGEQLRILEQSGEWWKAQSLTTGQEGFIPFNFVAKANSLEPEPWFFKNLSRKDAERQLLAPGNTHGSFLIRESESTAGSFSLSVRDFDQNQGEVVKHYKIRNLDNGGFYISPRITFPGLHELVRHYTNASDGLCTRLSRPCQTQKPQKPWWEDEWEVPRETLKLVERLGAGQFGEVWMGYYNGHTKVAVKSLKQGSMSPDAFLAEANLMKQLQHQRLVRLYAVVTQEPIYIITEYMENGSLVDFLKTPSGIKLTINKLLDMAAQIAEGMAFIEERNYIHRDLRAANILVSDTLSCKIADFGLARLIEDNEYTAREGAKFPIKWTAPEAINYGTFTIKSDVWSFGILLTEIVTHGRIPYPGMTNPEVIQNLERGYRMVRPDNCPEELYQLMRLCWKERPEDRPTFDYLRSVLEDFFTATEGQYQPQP
Chain of Alpha-2B adrenergic receptor (P18089 whole entry): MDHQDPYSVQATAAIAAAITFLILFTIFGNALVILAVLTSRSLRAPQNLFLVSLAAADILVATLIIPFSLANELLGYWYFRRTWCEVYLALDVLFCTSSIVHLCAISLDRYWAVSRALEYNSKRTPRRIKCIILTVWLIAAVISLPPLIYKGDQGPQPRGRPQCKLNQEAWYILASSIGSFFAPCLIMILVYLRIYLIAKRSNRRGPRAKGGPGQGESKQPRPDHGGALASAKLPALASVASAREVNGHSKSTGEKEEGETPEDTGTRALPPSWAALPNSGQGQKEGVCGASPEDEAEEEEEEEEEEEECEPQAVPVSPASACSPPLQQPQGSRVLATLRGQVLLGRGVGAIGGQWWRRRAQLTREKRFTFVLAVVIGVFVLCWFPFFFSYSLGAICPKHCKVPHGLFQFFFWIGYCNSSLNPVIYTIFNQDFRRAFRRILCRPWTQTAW

Ki [1]: 0.879 µM
SMILES: CC(C)(C)OC(=O)N1CCCC1CNC1CCC(c2cc(F)ccc2F)(S(=O)(=O)c2ccc(Cl)cc2)CC1 (stereo unspecified) [GSI-NC]

SMILES: O=S(=O)(NC1CCC(c2cc(F)ccc2F)(S(=O)(=O)c2ccc(Cl)cc2)CC1)C(F)(F)F (stereo unspecified) [MRK-560]
residual activity [2]: 100% | residual activity [3]: 96% | residual activity [4]: 100% | residual activity [5]: 100% | residual activity [6]: 97% | residual activity [7]: 100% | residual activity [8]: 100% | residual activity [9]: 100% | residual activity [10]: 85% | residual activity [11]: 78% | residual activity [12]: 94% | residual activity [13]: 98% | residual activity [14]: 100% | residual activity [15]: 100% | residual activity [16]: 100% | residual activity [17]: 100% | residual activity [18]: 100% | residual activity [19]: 69% | residual activity [20]: 100% | residual activity [21]: 100% | residual activity [22]: 100% | residual activity [23]: 78% | residual activity [24]: 100% | residual activity [25]: 100% | residual activity [26]: 86% | residual activity [27]: 89% | residual activity [28]: 96% | residual activity [29]: 100% | residual activity [30]: 69% | residual activity [31]: 0% | residual activity [32]: 63% | inhibition (Rattus norvegicus): 37.2% | residual activity [33]: 5% | residual activity [34]: 83% | residual activity [35]: 100%
